Experiments:
[1] = Appetite suppression: high fat food consumption in fasted rats (4-Hour and 24-Hour Consumption); assay type: in vivo, Sprague-Dawley rats; details: for reduction in effective dose of sibutramine: 30 mg/kg of telenzepine co-administered, effective dose lowered to 1 mg/kg
Description: Appetite Suppression: Three-month-old (300-350 grams) male, Sprague-Dawley rats (individually housed) were used to assess compounds for their appetite suppressant effects. Rats were acclimatized to a “high fat” food diet (BioServ Diet #F3282 or Research Diets #12451) for two weeks prior to testing (access to food and water ad libitum). One day prior to the experiment (at 5:00 PM), food was removed from the cages in order to motivate feeding when the food was returned the following morning (water remained available throughout the experiment). Prior to presentation of the food, rats (n=8-10/dose group) were dosed intraperitoneally (ip) or orally (po) with the compound under investigation, returned to their home cage and immediately given a pre-weighed amount of food. Four hours after administration, the food was removed from the cage, weighed, recorded (4-Hour Consumption) and returned to the rat until the following morning. Twenty-four hours after administration, the remaining food was again weighed and recorded (24-Hour Consumption). Cumulative consumption (expressed in grams) was calculated for both the four and the twenty-four hour intervals. In this assay, vehicle-treated rats typically consume approximately 8 grams over the four-hour interval and approximately 25 grams over the twenty-four-hour interval.
Treatment effects are presented in Table 1 and FIGS. 1-5 (4-Hour Consumption) and Table 2 and FIGS. 6-10 (24-Hour Consumption). The effects are given as both Raw Consumption (in grams ±SEM [1 standard error of the mean]) and as % Reduction in 4-Hour or 24-Hour Consumption=[1-(Consumption following Drug Treatment/Consumption following Vehicle Treatment)]×100%. Similar superscripts in the Dose column of Tables 1 and 2 denote values derived from the same experiment (to facilitate comparisons between individual treatments and co-administrations). Statistical analyses were performed using a 1-way ANOVA (analysis of variance) followed by a Bonferroni multiple comparison test with the overall alpha set at 0.05. In Tables 1 and 2, asterisks (*) denote significant effects compared to vehicle-treated rats, while letters (a or b) denote significant effects compared to rats treated with a single compound (“a” for significance from antidepressant and “b” for significance from telenzepine). In Tables 1 and 2, one symbol denotes p<0.05, two symbols denote p<0.01 and three symbols denote p<0.001). The symbols used for denoting statistical significance may be different in the corresponding figures.

[2] = Reduction in weight gain of rats on a high fat diet (two-week treatment); assay type: in vivo, Sprague-Dawley rats; details: for % Reduction: treatment minus vehicle % weight gain
Protocol: Reduction in Weight Gain: Three- to four-month-old (475-550 grams) male, Sprague-Dawley rats (individually housed) were used to assess compounds for their ability to prevent weight gain. At the onset of chronic experiments, rats had been maintained (ad libitum access) on a “high fat” diet (BioServ Diet #F3282 or Research Diets #12451) for approximately one month. Individual body weights and water consumptions were recorded three times per week throughout the duration of the experiment. After approximately two weeks of data collection, rats were counter-balanced to produce treatment groups with equivalent mean body weights. Under isofluorane-induced anesthesia, rats were surgically implanted (subscapular, subcutaneous [sc] placement) with osmotic mini-pumps (Alzet 2mL2) containing the appropriate drug concentration (based on mean body weights and calculated durations of delivery). Alternatively, for studies using the oral route of administration, rats were dosed by gavage daily over 14 days at a volume of 3 mL/kg. Data collection was continued under drug treatment for approximately two more weeks. Change in body weight (expressed in grams) was calculated for the treatment interval. In this assay, vehicle-treated rats typically gain approximately 35-40 grams (+9%) over the two-week interval. Treatment effects are presented in Table 3 as % Weight Gain=[(Body Weight at End of Drug Infusion−Baseline Body Weight)/Baseline Body Weight]×100%, for both Vehicle and Treatment groups; as well as % Reduction=(% Weight Gain for Treatment group−% Weight Gain for Vehicle group). Body weights throughout the treatment period are presented in FIGS. 11-15 as the percentage of baseline body weight. Similar superscripts in the Dose column of Table 3 denote values derived from the same experiment (to facilitate comparisons between individual treatments and co-administrations). Statistical analyses were performed using a 1-way ANOVA (analysis of variance) followed by a Bonferroni multiple comparison test with the overall alpha set at 0.05. In Table 3, asterisks (*) denote significant effects compared to vehicle-treated rats, while letters (a or b) denote significant effects compared to rats treated with a single compound (“a” for significance from antidepressant and “b” for significance from telenzepine). In Table 3, one symbol denotes p<0.05, two symbols denote p<0.01 and three symbols denote p<0.001). The symbols used for denoting statistical significance may be different in the corresponding figures.

[3] = local microinjection; cited from earlier work
[4] = 24 h, 10 mg/kg po, experiment d

In the case of CN(C)CCCC1(c2ccc(F)cc2)OCc2cc(C#N)ccc21 (stereo not drawn) [Citalopram, citalopram], the “Treatment Consumption” value ([1]; 4 h, 25 mg/kg ip, experiment a) is reported as 5.3 ± 0.72 g/4 Hrs, the “% Reduction in Consumption” value ([1]; 4 h, 25 mg/kg ip, experiment a, 25 mg/kg) is reported as 31% and the “% Reduction in Consumption” value ([1]; 4 h, 25 mg/kg ip, experiment a, listed as citalopram, 25 mg/kg) is reported as 31%. For the same compound, the “Treatment Consumption” value ([1]; 24 h, 25 mg/kg ip, experiment a) was 23.0 ± 0.71 g/24 Hrs, the “% Reduction in Consumption” value ([1]; 24 h, 25 mg/kg ip, experiment a, 25 mg/kg) was 4% and the “% Reduction in Consumption” value ([1]; 24 h, 25 mg/kg ip, experiment a, listed as citalopram, 25 mg/kg) was 4%. The “Treatment: % Weight Gain” value ([2]; 15 mg/kg sc, experiment a) was 6.2 ± 1.0% and the “% Reduction” value ([2]; 15 mg/kg sc, experiment a) was −2.4%.
For CC(C)(N)Cc1ccccc1 [Phentermine, phentermine], the “Treatment: % Weight Gain” value ([2]; 4 mg/kg sc, experiment c) was 4.2 ± 0.6% and the “% Reduction” value ([2]; 4 mg/kg sc, experiment c) was −1.1%.
In the case of CN[C@H]1CC[C@@H](c2ccc(Cl)c(Cl)c2)c2ccccc21 [Sertraline, sertraline], the “Treatment Consumption” value ([1]; 4 h, 10 mg/kg ip, experiment a) is reported as 6.0 ± 0.88 g/4 Hrs, the “% Reduction in Consumption” value ([1]; 4 h, 10 mg/kg ip, experiment a, 10 mg/kg) is reported as 21% and the “% Reduction in Consumption” value ([1]; 4 h, 10 mg/kg ip, experiment a, listed as sertraline, 10 mg/kg) is reported as 21%. The “Treatment Consumption” value ([1]; 4 h, 30 mg/kg ip, experiment a) was 5.6 ± 0.73 g/4 Hrs, the “% Reduction in Consumption” value ([1]; 4 h, 30 mg/kg ip, experiment a, 30 mg/kg) was 27% and the “% Reduction in Consumption” value ([1]; 4 h, 30 mg/kg ip, experiment a, listed as sertraline, 30 mg/kg) was 27%. For the same compound, the “Treatment Consumption” value ([1]; 24 h, 10 mg/kg ip, experiment a) was 23.5 ± 0.71 g/24 Hrs, the “% Reduction in Consumption” value ([1]; 24 h, 10 mg/kg ip, experiment a, 10 mg/kg) was 2% and the “% Reduction in Consumption” value ([1]; 24 h, 10 mg/kg ip, experiment a, listed as sertraline, 10 mg/kg) was 2%. The “Treatment Consumption” value ([1]; 24 h, 30 mg/kg ip, experiment a) was 17.1 ± 1.60 g/24 Hrs, the “% Reduction in Consumption” value ([1]; 24 h, 30 mg/kg ip, experiment a, 30 mg/kg) was 28% and the “% Reduction in Consumption” value ([1]; 24 h, 30 mg/kg ip, experiment a, listed as sertraline, 30 mg/kg) was 28%. The “Treatment: % Weight Gain” value ([2]; 5 mg/kg sc) was 7.2 ± 1.2%, the “% Reduction” value ([2]; 5 mg/kg sc) was −2.1% and the “Treatment: % Weight Gain” value ([2]; 10 mg/kg sc) was 6.0 ± 0.8%. For the same compound, the “% Reduction” value ([2]; 10 mg/kg sc) was −3.1%, the “reduction in body weight compared to vehicle treated rats” value ([2]; 15 mg/kg of sertraline alone) was 6.8% and the “Treatment: % Weight Gain” value ([2]; 15 mg/kg sc, experiment b) was 2.8 ± 0.8%. The “% Reduction” value ([2]; 15 mg/kg sc, experiment b) was −6.8%, the “Treatment: % Weight Gain” value ([2]; 20 mg/kg sc) was 2.8 ± 0.7% and the “% Reduction” value ([2]; 20 mg/kg sc) was −3.5%.
For CC(C)CC(N(C)C)C1(c2ccc(Cl)cc2)CCC1 (stereo not drawn) [Sibutramine, sibutramine], the “% Reduction in Consumption” value ([1]; 4 h, 1 mg/kg po, experiment c) was 0%, the “Treatment Consumption” value ([1]; 4 h, 1 mg/kg po, experiment c) was 10.1 ± 1.24 g/4 Hrs and the “% Reduction in Consumption” value ([1]; 4 h, 1 mg/kg po, experiment d) was 28%. For the same compound, the “Treatment Consumption” value ([1]; 4 h, 1 mg/kg po, experiment d) was 4.9 ± 0.68 g/4 Hrs, the “% Reduction in Consumption” value ([1]; 4 h, 3 mg/kg po, experiment c) was 23% and the “Treatment Consumption” value ([1]; 4 h, 3 mg/kg po, experiment c) was 8.0 ± 1.29 g/4 Hrs. For the same compound, the “% Reduction in Consumption” value ([1]; 4 h, 3 mg/kg po, experiment d) was 54%, the “Treatment Consumption” value ([1]; 4 h, 3 mg/kg po, experiment d) was 3.2 ± 0.33 g/4 Hrs and the “% Reduction in Consumption” value ([1]; 4 h, 10 mg/kg po, experiment d) was 38%. For the same compound, the “Treatment Consumption” value ([1]; 4 h, 10 mg/kg po, experiment d) was 4.3 ± 0.61 g/4 Hrs, the “reduction in effective dose of sibutramine” value ([1]; 4 hour consumption) was 3 fold and the “% Reduction in Consumption” value ([1]; 24 h, 1 mg/kg po, experiment c) was 10%. For the same compound, the “Treatment Consumption” value ([1]; 24 h, 1 mg/kg po, experiment c) was 27.4 ± 1.78 g/24 Hrs, the “% Reduction in Consumption” value ([1]; 24 h, 1 mg/kg po, experiment d) was 16% and the “Treatment Consumption” value ([1]; 24 h, 1 mg/kg po, experiment d) was 20.7 ± 1.05 g/24 Hrs. For the same compound, the “% Reduction in Consumption” value ([1]; 24 h, 3 mg/kg po, experiment c) was 28%, the “Treatment Consumption” value ([1]; 24 h, 3 mg/kg po, experiment c) was 21.9 ± 1.98 g/24 Hrs and the “% Reduction in Consumption” value ([1]; 24 h, 3 mg/kg po, experiment d) was 38%. The “Treatment Consumption” value ([1]; 24 h, 3 mg/kg po, experiment d) was 15.4 ± 1.22 g/24 Hrs, the “% Reduction in Consumption” value [1, 4] was 52% and the “Treatment Consumption” value [1, 4] was 11.9 ± 1.15 g/24 Hrs. The “reduction in effective dose of sibutramine” value ([1]; 24 hour consumption) was 10 fold, the effect on consumption ([1]; given alone, oral administration required for a significant reduction) was “effective” and the “Treatment: % Weight Gain” value ([2]; 0.3 mg/kg po, experiment d) was 4.7 ± 0.5%. For the same compound, the “% Reduction” value ([2]; 0.3 mg/kg po, experiment d) was −1.7%, the “Treatment: % Weight Gain” value ([2]; 3 mg/kg po) was −5.7 ± 1.2% and the “% Reduction” value ([2]; 3 mg/kg po) was −6.0%. The “reduction of weight gain against vehicle treated controls (reduction from baseline)” value ([2]; given alone) was 6%.
With COc1ccc(C(CN(C)C)C2(O)CCCCC2)cc1 (stereo not drawn) [Venlafaxine, venlafaxine] the “Treatment Consumption” value ([1]; 4 h, 30 mg/kg ip, experiment b) was 6.1 ± 0.84 g/4 Hrs, the “% Reduction in Consumption” value ([1]; 4 h, 30 mg/kg ip, experiment b, 30 mg/kg) was 13% and the “% Reduction in Consumption” value ([1]; 4 h, 30 mg/kg ip, experiment b, listed as venlafaxine, 30 mg/kg) was 13%. For the same compound, the “Treatment Consumption” value ([1]; 24 h, 30 mg/kg ip, experiment b) was 24.9 ± 1.52 g/24 Hrs, the “% Reduction in Consumption” value ([1]; 24 h, 30 mg/kg ip, experiment b, 30 mg/kg) was 0% and the “% Reduction in Consumption” value ([1]; 24 h, 30 mg/kg ip, experiment b, listed as venlafaxine, 30 mg/kg) was 0%. The “reduction in body weight compared to vehicle treated rats” value ([2]; 30 mg/kg of venlafaxine alone) was 0.7%, the “Treatment: % Weight Gain” value ([2]; 30 mg/kg sc, experiment b) was 7.4 ± 0.5% and the “% Reduction” value ([2]; 30 mg/kg sc, experiment b) was −0.7%.
For CN1CCN(CC(=O)N2c3ccccc3C(=O)Nc3cccnc32)CC1 [pirenzepine, 5,11-Dihydro-11-[(4-methyl-1-piperazinyl)acetyl]-6H-pyrido[2,3-b][1,4]benzodiazepin-6-one], the “dopamine efflux in the striatum” value [3] is listed as “decreased dopamine efflux”.

— patent publication US8748419B2, “Treating obesity with muscarinic receptor M1 antagonists” (priority 2006, dated 2014)
